From patent publication US20250145585A1, “HETEROCYCLIC INHIBITORS OF IGF-1R FOR TREATMENT OF DISEASE” (HORIZON THERAPEUTICS IRELAND DAC, priority 2023, published 2025)
Where a name gives a salt, the structure may show the parent alone.

These molecules were tested against T1, IGF-1R (Homo sapiens, UniProt P08069) (assay: Example B-2: IGF-1R Assay (PathHunter cell lines, EC80 agonist challenge, chemiluminescent detection)). Conditions: PathHunter cells, compound 60 minutes at 37° C., EC80 agonist 3 hours; read-out: IC50, Biological Activity against IGF-1R (Table B2).
T1 construct: expressed in transfected cells
T1 sequence (P08069 31-1367): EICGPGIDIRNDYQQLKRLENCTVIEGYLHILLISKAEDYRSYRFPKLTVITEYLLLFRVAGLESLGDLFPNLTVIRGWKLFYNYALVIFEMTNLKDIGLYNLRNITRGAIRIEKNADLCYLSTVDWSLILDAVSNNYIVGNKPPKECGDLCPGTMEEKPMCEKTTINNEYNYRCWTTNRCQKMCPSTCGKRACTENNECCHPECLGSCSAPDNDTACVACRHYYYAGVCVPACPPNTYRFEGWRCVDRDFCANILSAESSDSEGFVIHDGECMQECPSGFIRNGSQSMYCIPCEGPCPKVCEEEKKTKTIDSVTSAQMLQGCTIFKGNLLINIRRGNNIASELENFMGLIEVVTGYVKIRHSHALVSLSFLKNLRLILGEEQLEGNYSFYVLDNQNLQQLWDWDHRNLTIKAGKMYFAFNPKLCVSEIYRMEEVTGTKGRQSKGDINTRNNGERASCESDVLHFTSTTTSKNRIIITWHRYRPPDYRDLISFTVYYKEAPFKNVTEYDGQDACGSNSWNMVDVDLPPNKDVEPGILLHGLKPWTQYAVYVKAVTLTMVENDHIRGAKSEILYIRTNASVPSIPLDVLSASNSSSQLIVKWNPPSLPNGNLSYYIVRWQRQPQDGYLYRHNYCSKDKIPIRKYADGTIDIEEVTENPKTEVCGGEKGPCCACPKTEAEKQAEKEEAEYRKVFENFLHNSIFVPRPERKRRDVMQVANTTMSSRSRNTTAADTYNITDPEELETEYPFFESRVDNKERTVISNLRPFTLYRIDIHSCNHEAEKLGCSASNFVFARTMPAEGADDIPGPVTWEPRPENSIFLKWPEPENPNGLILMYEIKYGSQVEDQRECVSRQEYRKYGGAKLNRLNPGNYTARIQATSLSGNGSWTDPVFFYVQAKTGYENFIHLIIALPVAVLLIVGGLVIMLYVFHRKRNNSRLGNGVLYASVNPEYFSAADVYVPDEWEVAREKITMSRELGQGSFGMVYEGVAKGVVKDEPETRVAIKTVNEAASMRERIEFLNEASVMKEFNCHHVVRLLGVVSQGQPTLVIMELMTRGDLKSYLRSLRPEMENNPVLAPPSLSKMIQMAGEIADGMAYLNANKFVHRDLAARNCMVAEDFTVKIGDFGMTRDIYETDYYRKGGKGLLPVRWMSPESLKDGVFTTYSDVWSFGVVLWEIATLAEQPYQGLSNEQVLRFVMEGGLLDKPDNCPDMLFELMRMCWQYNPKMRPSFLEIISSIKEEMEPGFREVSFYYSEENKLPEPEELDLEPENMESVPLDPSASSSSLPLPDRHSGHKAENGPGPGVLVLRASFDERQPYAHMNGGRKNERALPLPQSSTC
Assay type: cell-based
In short: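 Read-out is PathHunter chemiluminescence, developed for 1 h at room temperature after a 3 h room-temperature EC80 agonist challenge that followed 60 min compound pre-treatment at 37° C (1% vehicle). IC50 comes from % inhibition normalized to EC80 and vehicle controls.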

| Structure (SMILES) | IC50 [nM] |
| --- | --- |
| CC1(C)C(=O)N(c2ccc(OC(F)(F)F)c(N3CCOCC3)c2)C(=O)N1Cc1ccnc2c1CC(=O)N2 [Compound 74, 5,5-dimethyl-3-(3-morpholino-4-(trifluoromethoxy)phenyl)-1-((2-oxo-2,3-dihydro-1H-pyrrolo[2,3-b]pyridin-4-yl)methyl)imidazolidine-2,4-dione] | ≤ 500 |
| COC[C@@H](C)Nc1cc(CN2C(=O)N(c3ccc4c(c3)N(S(C)(=O)=O)CC4(C)C)C(=O)C2(C)C)ccn1 [Compound 203, (R)-3-(3,3-dimethyl-1-(methylsulfonyl)indolin-6-yl)-1-((2-((1-methoxypropan-2-yl)amino)pyridin-4-yl)methyl)-5,5-dimethylimidazolidine-2,4-dione] | ≤ 500 |
| CC1(C)C(=O)N(c2ccc(C3(C#N)CC3(C)C)cc2)C(=O)N1Cc1ccnc2c1CC(=O)N2 (centres unmarked) [Compound 61, 1-(4-(4,4-dimethyl-2,5-dioxo-3-((2-oxo-2,3-dihydro-1H-pyrrolo[2,3-b]pyridin-4-yl)methyl)imidazolidin-1-yl)phenyl)-2,2-dimethylcyclopropane-1-carbonitrile] | ≤ 500 |
| CC1(C)C(=O)N(c2ccc(C3(C(F)(F)F)CC3)cc2)C(=O)N1Cc1ccnc(NCc2cn[nH]c2)c1 [Compound 171, 1-((2-(((1H-pyrazol-4-yl)methyl)amino)pyridin-4-yl)methyl)-5,5-dimethyl-3-(4-(1-(trifluoromethyl)cyclopropyl)phenyl) imidazolidine-2,4-dione] | ≤ 500 |
| CC1(C)C(=O)N(c2ccc3c(c2)N(S(C)(=O)=O)CC32CCC2)C(=O)N1Cc1ccnc(N[C@@H]2C[C@@H]2F)c1 [Compound 240, 1-((2-(((1R,2S)-2-fluorocyclopropyl)amino)pyridin-4-yl)methyl)-5,5-dimethyl-3-(1′-(methylsulfonyl)spiro[cyclobutane-1,3′-indolin]-6′-yl)imidazolidine-2,4-dione] | ≤ 500 |
| CC(C)Nc1cc(CN2C(=O)N(c3ccc4c(c3)C(O)(O)C(F)(F)S4(=O)=O)C(=O)C2(C)C)ccn1 [Compound 192, 3-(2,2-difluoro-3,3-dihydroxy-1,1-dioxido-2,3-dihydrobenzo[b]thiophen-5-yl)-1-((2-(isopropylamino)pyridin-4-yl)methyl)-5,5-dimethylimidazolidine-2,4-dione] | > 10000 |
| CN(C)CCOc1cc(N2C(=O)N(Cc3ccnc(N[C@H]4[C@@H]5COC[C@@H]54)c3)C(C)(C)C2=O)ccc1OC(F)(F)F [Compound 282, 1-((2-(((1R,5S,6r)-3-oxabicyclo[3.1.0]hexan-6-yl)amino)pyridin-4-yl)methyl)-3-(3-(2-(dimethylamino)ethoxy)-4-(trifluoromethoxy)phenyl)-5,5-dimethylimidazolidine-2,4-dione] | ≤ 500 |
| COCCC(C)Nc1cc(CN2C(=O)N(c3ccc(C(C)(C)C#N)cc3)C(=O)C2(C)C)ccn1 (centres unmarked) [Compound 156, 2-(4-(3-((2-((4-methoxybutan-2-yl)amino)pyridin-4-yl)methyl)-4,4-dimethyl-2,5-dioxoimidazolidin-1-yl)phenyl)-2-methylpropanenitrile] | ≤ 500 |
| CC1(C)C(=O)N(c2ccc3c(c2)N(S(C)(=O)=O)CC32CCC2)C(=O)N1Cc1ccnc(NCC2CC2(F)F)c1 (centres unmarked) [Compound 232, 1-((2-(((2,2-difluorocyclopropyl)methyl)amino)pyridin-4-yl)methyl)-5,5-dimethyl-3-(1′-(methylsulfonyl)spiro[cyclobutane-1,3′-indolin]-6′-yl)imidazolidine-2,4-dione] | ≤ 500 |
| CN(C)CCOc1cc(N2C(=O)N(Cc3ccnc4c3CC(=O)N4)C(C)(C)C2=O)ccc1OC(F)(F)F [Compound 284, 3-(3-(2-(dimethylamino)ethoxy)-4-(trifluoromethoxy)phenyl)-5,5-dimethyl-1-((2-oxo-2,3-dihydro-1H-pyrrolo[2,3-b]pyridin-4-yl)methyl)imidazolidine-2,4-dione] | 500 to 2000 |
| CC1(C)C(=O)N(c2ccc(C3(C#N)CC3)c(F)c2)C(=O)N1Cc1ccnc2c1CC(=O)N2 [Compound 71, 1-(4-(4,4-dimethyl-2,5-dioxo-3-((2-oxo-2,3-dihydro-1H-pyrrolo[2,3-b]pyridin-4-yl)methyl)imidazolidin-1-yl)-2-fluorophenyl)cyclopropane-1-carbonitrile] | 500 to 2000 |
| CC(C)c1ccc(N2C(=O)N(Cc3ccnc(N[C@H]4[C@@H]5COC[C@@H]54)c3)C(C)(C)C2=O)cc1C#N [Compound 279, 5-(3-((2-(((1R,5S,6r)-3-oxabicyclo[3.1.0]hexan-6-yl)amino)pyridin-4-yl)methyl)-4,4-dimethyl-2,5-dioxoimidazolidin-1-yl)-2-isopropylbenzonitrile] | ≤ 500 |
| CC1(C)C(=O)N(c2ccc(OC(F)(F)F)c(NC(=O)CN3CCOCC3)c2)C(=O)N1Cc1ccnc2c1CC(=O)N2 [Compound 75, N-(5-(4,4-dimethyl-2,5-dioxo-3-((2-oxo-2,3-dihydro-1H-pyrrolo[2,3-b]pyridin-4-yl)methyl)imidazolidin-1-yl)-2-(trifluoromethoxy)phenyl)-2-morpholinoacetamide] | ≤ 500 |
| C[C@@H](CC#N)Nc1cc(CN2C(=O)N(c3cc(C(C)(C)C)nn3C)C(=O)C2(C)C)ccn1 [Compound 262, (S)-3-((4-((3-(3-(tert-butyl)-1-methyl-1H-pyrazol-5-yl)-5,5-dimethyl-2,4-dioxoimidazolidin-1-yl)methyl)pyridin-2-yl)amino)butanenitrile] | > 10000 |
| C[C@@H](CC#N)Nc1cc(CN2C(=O)N(c3ccc(S(=O)(=O)C(F)(F)F)cc3)C(=O)C2(C)C)ccn1 [Compound 321, (S)-3-((4-((5,5-dimethyl-2,4-dioxo-3-(4-((trifluoromethyl)sulfonyl)phenyl)imidazolidin-1-yl)methyl)pyridin-2-yl)amino)butanenitrile] | 500 to 2000 |
| CC1(C)CN(S(C)(=O)=O)c2cc(N3C(=O)N(Cc4ccnc(N[C@H]5CCOC5)c4)C(C)(C)C3=O)ccc21 [Compound 201, (S)-3-(3,3-dimethyl-1-(methylsulfonyl)indolin-6-yl)-5,5-dimethyl-1-((2-((tetrahydrofuran-3-yl)amino)pyridin-4-yl)methyl)imidazolidine-2,4-dione] | ≤ 500 |
| CC1(C)C(=O)N(c2ccc(C3(C(F)(F)F)CCC3)cc2F)C(=O)N1Cc1ccnc2c1CC(=O)N2 [Compound 59, 3-(2-fluoro-4-(1-(trifluoromethyl)cyclobutyl)phenyl)-5,5-dimethyl-1-((2-oxo-2,3-dihydro-1H-pyrrolo[2,3-b]pyridin-4-yl)methyl)imidazolidine-2,4-dione] | ≤ 500 |
| C[C@@H](CC#N)Nc1cc(CN2C(=O)N(c3ccc4c(c3)N(C)CC4(C)C)C(=O)C2(C)C)ccn1 [Compound 217, (S)-3-((4-((5,5-dimethyl-2,4-dioxo-3-(1,3,3-trimethylindolin-6-yl)imidazolidin-1-yl)methyl)pyridin-2-yl)amino)butanenitrile] | ≤ 500 |
| CC1(C)C(=O)N(c2ccc(S(=O)(=O)C(F)(F)F)cc2)C(=O)N1Cc1ccnc(N[C@H]2CCOCC2(F)F)c1 [Compound 343, (S)-1-((2-((3,3-difluorotetrahydro-2H-pyran-4-yl)amino)pyridin-4-yl)methyl)-5,5-dimethyl-3-(4-((trifluoromethyl)sulfonyl)phenyl) imidazolidine-2,4-dione] | 2000 to 10000 |
| CC1(C)CN(C(=O)C2CC2)c2cc(N3C(=O)N(Cc4ccnc(N[C@H]5CCOC5)c4)C(C)(C)C3=O)ccc21 [Compound 196, (S)-3-(1-(cyclopropanecarbonyl)-3,3-dimethylindolin-6-yl)-5,5-dimethyl-1-((2-((tetrahydrofuran-3-yl)amino)pyridin-4-yl)methyl)imidazolidine-2,4-dione] | ≤ 500 |
| CC1(C)C(=O)N(c2ccc(C3(C(F)(F)F)CCC3)cc2)C(=O)N1Cc1ccnc2c1CC(=O)N2 [Compound 30, 5,5-dimethyl-1-((2-oxo-2,3-dihydro-1H-pyrrolo[2,3-b]pyridin-4-yl)methyl)-3-(4-(1-(trifluoromethyl)cyclobutyl)phenyl)imidazolidine-2,4-dione hydrochloride] | ≤ 500 |
| CC1(C)C(=O)N(c2ccc(S(=O)(=O)C(F)(F)F)cc2)C(=O)N1Cc1ccnc(NC2CCNC(=O)C2)c1 (centres unmarked) [Compound 333, 5,5-dimethyl-1-((2-((2-oxopiperidin-4-yl)amino)pyridin-4-yl)methyl)-3-(4-((trifluoromethyl)sulfonyl)phenyl) imidazolidine-2,4-dione] | 500 to 2000 |
| CC1(C)C(=O)N(c2ccc(C3(C#N)CC3)cc2)C(=O)N1Cc1ccnc2c1CC(=O)N2 [Compound 64, 1-(4-(4,4-dimethyl-2,5-dioxo-3-((2-oxo-2,3-dihydro-1H-pyrrolo[2,3-b]pyridin-4-yl)methyl)imidazolidin-1-yl)phenyl)cyclopropane-1-carbonitrile] | 500 to 2000 |
| CC(C)(C#N)c1ccc(N2C(=O)N(Cc3ccnc(N[C@H]4[C@@H]5COC[C@@H]54)c3)C(C)(C)C2=O)cc1 [Compound 162, 2-(4-(3-((2-(((1R,5S,6r)-3-oxabicyclo[3.1.0]hexan-6-yl)amino)pyridin-4-yl)methyl)-4,4-dimethyl-2,5-dioxoimidazolidin-1-yl)phenyl)-2-methylpropanenitrile] | ≤ 500 |
| CN1C[C@H](Nc2cc(CN3C(=O)N(c4ccc(S(=O)(=O)C(F)(F)F)cc4)C(=O)C3(C)C)ccn2)CC1=O [Compound 324, (R)-5,5-dimethyl-1-((2-((1-methyl-5-oxopyrrolidin-3-yl)amino)pyridin-4-yl)methyl)-3-(4-((trifluoromethyl)sulfonyl)phenyl) imidazolidine-2,4-dione] | 500 to 2000 |
| CC1(C)C(=O)N(c2ccc(C3(C#N)CC34CC4)cc2)C(=O)N1Cc1ccnc2c1CC(=O)N2 (centres unmarked) [Compound 69, 1-(4-(4,4-dimethyl-2,5-dioxo-3-((2-oxo-2,3-dihydro-1H-pyrrolo[2,3-b]pyridin-4-yl)methyl)imidazolidin-1-yl)phenyl)spiro[2.2]pentane-1-carbonitrile] | ≤ 500 |
